Measured values published in paper PMC8151276, “An Integrated Approach toward NanoBRET Tracers for Analysis of GPCR Ligand Engagement” (Molecules, 2021).

Target: T1, VIPR1 (Homo sapiens, UniProt P32241)
T1 construct: purchased Promega (in-house HiBiT-GPCR construct library, NanoBRET)
T1 sequence (P32241 31-457): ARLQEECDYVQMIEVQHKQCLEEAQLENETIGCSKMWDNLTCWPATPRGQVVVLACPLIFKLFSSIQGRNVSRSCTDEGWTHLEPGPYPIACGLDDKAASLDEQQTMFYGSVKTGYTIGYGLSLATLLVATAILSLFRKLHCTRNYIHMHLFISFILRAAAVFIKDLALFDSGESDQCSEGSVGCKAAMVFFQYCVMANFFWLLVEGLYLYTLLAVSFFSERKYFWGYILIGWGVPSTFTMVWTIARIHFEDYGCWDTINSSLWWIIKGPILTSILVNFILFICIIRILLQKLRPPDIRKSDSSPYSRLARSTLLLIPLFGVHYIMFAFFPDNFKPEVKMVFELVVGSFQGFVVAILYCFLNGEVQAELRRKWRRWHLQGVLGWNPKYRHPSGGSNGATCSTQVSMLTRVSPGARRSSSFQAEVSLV
Test: NanoBRET screen HiBiT-VIPR1 in HEK293
Format: binding
Method: Each tracer candidate was screened across the entire library of HiBiT-GPCR constructs using NanoBRET as the detection modality. As depicted in Figure 4A, the specificity of interactions was evaluated through decrease in BRET due to competitive displacement of a bound tracer by excess parental compound. Each tracer was analyzed for binding to each HiBiT-GPCR fusion in the absence and in the presence of competing parental compound. Briefly, HEK293 cells were transfected with HiBiT-GPCR constructs diluted into promoterless DNA to reduce expression and maximize translocation to the cell surface. Each tracer candidate was then screened at concentrations of 1 μM and 0.1 μM across cells expressing these fusions. Cells were treated for 1.5 h with tracer either alone or in the presence of 20 μM competing parental compound (i.e., control). BRET was measured upon addition of purified LgBiT and subsequent complementation with HiBiT genetically fused to a GPCR. The specificity of interactions was assessed through a decrease in BRET signal due to competitive displacement of the bound tracer. To further gauge the robustness of these interactions, the fold response over the control (i.e., BRETtracer/BRETcontrol) was calculated. We chose a 1.5-fold response, which translates to ≥7-fold signal over noise as the minimal threshold required to score an interaction as positive. […]. Below we highlight the screening results obtained for our exemplary fluorescent tracers based on Clozapine, Amitriptyline and AZD1283.
HiBiT-GPCR DNA constructs were diluted in 10 mM Tris pH 8 to a final concentration of 0.01 μg/μL, arrayed in 96-well plates and stored at −20 °C. For transfection, HEK293 cells were suspended in Opti-MEM (without phenol red) supplemented with 2% fetal bovine serum (Seradigm) and 100 units/mL penicillin–streptomycin (Gibco) at a final concentration of 220,000 cells/mL and dispensed into white 96-well plates at 90 μL/well. Subsequent transfections and screens were carried using an Agilent Bravo Automated Liquid Handling Platform. First, the 96-well HiBiT DNA arrays were diluted 25-fold in Opti-MEM (without serum or phenol red) to a final concentration of 0.0004 μg/μL and 20 μL of the diluted DNAs were transferred into new 96-well plates. Next, promoterless carrier DNA (1 μg/μL) was diluted 25-fold (0.04 μg/μL) and then dispensed into the diluted arrays at 20 μL/well. Following brief mixing, Viafect transfection reagent (Promega) diluted 16-fold into Opti-MEM was dispensed into the plates at 40 μL/well. After mixing by pipetting, plates were incubated for 10 min on the pipetting station deck. The DNA-transfection reagent complexes were then added to plates containing cells. To facilitate the screen, 10 μL of DNA-transfection reagent complexes were added in duplicates to the top 4 and bottom 4 rows, resulting in two identical 48-well arrays per plate. Plates with transfected cells were incubated for 18–20 h at 37 °C/5% CO2. A screen of each tracer across the entire library using two different concentrations requires duplicate plates of transfected cells. Depending on the number of tracers being screened, transfections can be scaled up using the same ratios. The next day, for each tracer, four 20× screening solutions in tracer dilution buffer (Promega) were prepared: two duplicates at final concentration of 20 μM and two duplicates at a final concentration of 2 μM. A competing unmodified compound was added to one of each duplicate at a final concentration of 400 μM. The four resulting solutions were diluted 4-fold in Opti-MEM without serum or phenol red to generate 5× solutions (5 µM and 0.5 µM tracer +/− 100 μM competing compound). To screen the library, a BioTek MultiFlo FX liquid dispenser was used to dispense 22.5 µL of tracer solution to the top 4 rows and 22.5 µL tracer + competing compound solution to the 4 bottom rows. Plates were briefly mixed on an orbital shaker and incubated for 1.5 h at room temperature. […]

Row | SMILES | NanoBRET Fold Response (VIPR1, tracer 0.1μM) | NanoBRET Fold Response (VIPR1, tracer 1μM) | also measured
1 | CN1CCN(C2=Nc3cc(Cl)ccc3Nc3ccc(CNC(=O)CCOCCOCCOCCOCCNC(=O)CCc4ccc5n4[B-](F)(F)[N+]4=C(c6ccc[nH]6)C=CC4=C5)cc32)CC1 [Clozapine-b-2-NB590] | – | – | NanoBRET Fold Response (VIPR1, 0.1μM tracer): 1.12; NanoBRET Fold Response (VIPR1, 1μM tracer): 0.99
2 | CN(C)CCC=C1c2ccccc2CCc2ccc(C(=O)NCCNC(=O)CCOCCOCCOCCOCCNC(=O)CCc3ccc4n3[B-](F)(F)[N+]3=C(c5ccc[nH]5)C=CC3=C4)cc21 [Amitriptyline-b-2-NB590] | – | – | NanoBRET Fold Response (tracer at 0.1μM, listed as amitriptyline-b-2-NB590): 0.98; NanoBRET Fold Response (tracer at 1μM): 0.96
3 | CCOC(=O)c1cc(C#N)c(N2CCC(C(=O)NS(=O)(=O)Cc3ccccc3/C=C/C(=O)NCCNC(=O)CCc3ccc4n3[B-](F)(F)[N+]3=C(c5ccc[nH]5)C=CC3=C4)CC2)nc1C [AZD1283-1-NB590] | – | – | NanoBRET Fold Response (VIPR1, 0.1μM): 0.99; NanoBRET Fold Response (VIPR1, 1μM): 1.02
4 | CC(C)N(CC[C@H](c1ccccc1)c1cc(CCNC(=O)CCOCCOCCOCCOCCNC(=O)CCc2ccc3n2[B-](F)(F)[N+]2=C(c4ccc[nH]4)C=CC2=C3)ccc1O)C(C)C [Tolterodine-2-NB590] | 0.99 | 0.78 | –
5 | CC(C)N(CC[C@H](c1ccccc1)c1cc(CCNC(=O)c2ccc(CNC(=O)CCc3ccc4n3[B-](F)(F)[N+]3=C(c5ccc[nH]5)C=CC3=C4)cc2)ccc1O)C(C)C [Tolterodine-BZ-NB590] | 0.97 | 0.98 | –
6 | O=C(CCOCCOCCOCCOCCNC(=O)CCc1ccc2n1[B-](F)(F)[N+]1=C(c3ccc[nH]3)C=CC1=C2)NCCCN1CCN(C2=Nc3ccccc3Oc3ccc(Cl)cc32)CC1 [Loxapine-a-2-NB590] | 0.94 | 1.05 | –
7 | CN1CCN(C2=Nc3cc(Cl)ccc3N(CC(=O)NCCOCCOCCOCCOCCNC(=O)CCc3ccc4n3[B-](F)(F)[N+]3=C(c5ccc[nH]5)C=CC3=C4)c3ccccc32)CC1 [Clozapine-c-2-NB590] | – | – | NanoBRET Fold Response (VIPR1, 0.1μM tracer): 0.98; NanoBRET Fold Response (VIPR1, 1μM tracer): 1.00
8 | CN(C)CCC=C1c2ccccc2CCc2ccc(C(=O)NCCNC(=O)CCOCCOCCOCCOCCNC(=O)CCc3ccc4n3[B-](F)(F)[N+]3=C(c5ccc[nH]5)C=CC3=C4)cc21 [Amitriptyline-a-2-NB590] | – | – | NanoBRET Fold Response (tracer at 0.1μM): 0.95; NanoBRET Fold Response (tracer at 1μM): 1.07
9 | Cc1nc2n(c(=O)c1CCN1CCC(c3noc4cc(F)ccc34)CC1)CCCC2OC(=O)NCCOCCOCCOCCOCCNC(=O)CCc1ccc2n1[B-](F)(F)[N+]1=C(c3ccc[nH]3)C=CC1=C2 (centres unmarked) [Risperidone-2-NB590] | 0.98 | 1.10 | –
10 | COc1ccc2[nH]c(-c3ccc(CNC(=O)CCOCCOCCOCCOCCNC(=O)CCc4ccc5n4[B-](F)(F)[N+]4=C(c6ccc[nH]6)C=CC4=C5)cc3)c(CCNC(C)=O)c2n1 [AzomelatoninICO9-2-NB590] | – | – | NanoBRET Fold Response (0.1μM tracer): 0.89; NanoBRET Fold Response (1μM tracer): 0.81
11 | COc1ccccc1N1CCN(CCCCN2C(=O)c3ccc(CNC(=O)CCOCCOCCOCCOCCNC(=O)CCc4ccc5n4[B-](F)(F)[N+]4=C(c6ccc[nH]6)C=CC4=C5)cc3C2=O)CC1 [NAN-190-2-NB590] | 1.00 | 1.02 | –
12 | O=C(CCc1ccc2n1[B-](F)(F)[N+]1=C(c3ccc[nH]3)C=CC1=C2)NCCOCCOCCNC(=O)OCCOCCN1CCN(C2=Nc3ccccc3Sc3ccccc32)CC1 [Quetiapine-a-2-NB590] | 1.03 | 0.92 | –
13 | O=C(CCOCCOCCOCCOCCNC(=O)CCc1ccc2n1[B-](F)(F)[N+]1=C(c3ccc[nH]3)C=CC1=C2)NCCCN1CCN(C2=Nc3cc(Cl)ccc3Nc3ccccc32)CC1 [Clozapine-a-2-NB590] | – | – | NanoBRET Fold Response (VIPR1, 0.1μM tracer): 0.98; NanoBRET Fold Response (VIPR1, 1μM tracer): 1.10
14 | N#CN=C(NCCCOc1cccc(CN2CCCCC2)c1)NCCNC(=O)CCOCCOCCOCCOCCNC(=O)CCc1ccc2n1[B-](F)(F)[N+]1=C(c3ccc[nH]3)C=CC1=C2 [Aminopotentidine-2-NB590] | 1.02 | 1.00 | –
15 | O=C(CCc1ccc2n1[B-](F)(F)[N+]1=C(c3ccc[nH]3)C=CC1=C2)NCc1ccc(C(=O)NCCOCCOCCNCC(O)COc2cccc3ccccc23)cc1 (centres unmarked) [Propranolol-3-NB590] | – | – | NanoBRET Fold Response (VIPR1, 0.1μM): 1.03; NanoBRET Fold Response (VIPR1, 1μM): 1.04
16 | O=C(CCc1ccc2n1[B-](F)(F)[N+]1=C(c3ccc[nH]3)C=CC1=C2)NCc1ccc(C(=O)NCCOCCC(=O)N[C@@H]2CC[C@@]3(O)[C@H]4Cc5ccc(O)c6c5[C@@]3(CCN4CC3CC3)[C@H]2O6)cc1 [Naltrexone-3-NB590] | 0.95 | 1.36 | –
17 | COc1ccccc1N1CCN(CCCCN2C(=O)c3ccc(CNC(=O)CCOCCNC(=O)c4ccc(CNC(=O)CCc5ccc6n5[B-](F)(F)[N+]5=C(c7ccc[nH]7)C=CC5=C6)cc4)cc3C2=O)CC1 [NAN-190-3-NB590] | 0.71 | 1.05 | –
18 | Cc1cc2c(s1)Nc1ccccc1N=C2N1CCN(CCCNC(=O)CCOCCOCCOCCOCCNC(=O)CCc2ccc3n2[B-](F)(F)[N+]2=C(c4ccc[nH]4)C=CC2=C3)CC1 [Olanzapine-a-2-NB590] | 1.06 | 1.04 | –
19 | CCCn1c(=O)c2[nH]c(-c3ccc(OCC(=O)NCCNC(=O)CCOCCNC(=O)c4ccc(CNC(=O)CCc5ccc6n5[B-](F)(F)[N+]5=C(c7ccc[nH]7)C=CC5=C6)cc4)cc3)nc2n(CCC)c1=O [XAC-3-NB590] | 1.03 | 0.99 | –
20 | CN(CCC=C1c2ccccc2CCc2ccccc21)C(=O)CCOCCOCCOCCOCCNC(=O)CCc1ccc2n1[B-](F)(F)[N+]1=C(c3ccc[nH]3)C=CC1=C2 [Amitriptyline-e-2-NB590] | – | – | NanoBRET Fold Response (tracer at 1μM): 1.06
21 | COc1ccc2c(n1)c(CCNC(C)=O)cn2CCNC(=O)CCc1ccc2n1[B-](F)(F)[N+]1=C(c3ccc[nH]3)C=CC1=C2 [Azamelatonin-1-NB590] | – | – | NanoBRET Fold Response (0.1μM tracer): 0.99; NanoBRET Fold Response (1μM tracer): 1.21
